Source: patent US12377095B2, “Use of ligustrazine nitrone derivatives in treatment and prevention of diabetic complication diseases” (QINGDAO HAILAN PHARMACEUTICALS CO., LTD., priority 2019, dated 2025)

Tests used:
STZ-induced DKD rats [1] = experiment: Body weight, water intake and food intake of STZ-induced DKD rats; type: in vivo, rat
Experimental: (§1) SD rats (200±10 g) were used as model animals, which were fasted for 12 h before injection. STZ was dissolved in citrate buffer at 1% concentration, and rats were fasted and intraperitoneally injected with 55 mg/kg STZ and placed in the cage, the rats being ensured with adequate water intake for 24 h. STZ injections need to be fast and complete within 10 minutes of injection. The normal control group was injected with an equal volume of pH 4.5 citric acid-sodium citrate buffer. The state of the animals (multiple drinking and polyuria) was observed. After 3 weeks of STZ injection, blood was collected from the tail vein, and fasting blood glucose ≥16.7 mmol/L was measured as the standard for diabetic nephropathy in rats.
(§2) DKD rats were randomly assigned to 6 groups and given with different drugs. After 6 weeks of administration, the experiment was terminated and the protective effect of the drug on DKD rats was observed.
The general condition and body weight changes after rat modeling were observed weekly. The general conditions include the activity, mental state, coat color, diet, water intake and urine volume of the rats. The amount of water and the amount of feed were recorded weekly.

STZ-induced DKD rats [2] = experiment: Retinopathy of STZ-induced DKD rats; type: in vivo, rat; conditions: DKD rats after treatment, Table 1 (FIG. 5)
Experimental: as §1, §2
During the experiment, the retinopathy of rats was observed during daily administration, and the dates of retinopathy in different groups of rats were recorded.

STZ-induced DKD rats [3] = experiment: Blood glucose and urine protein in STZ-induced DKD rats; type: in vivo, rat
Experimental: as §1, §2
During the experiment, the blood glucose of the rats was monitored after the completion of the modeling and after the completion of the administration, and urine protein was collected once at 24 hour.

STZ-induced DKD rats [4] = experiment: Serum biochemical parameters of STZ-induced DKD rats; type: in vivo, rat; conditions: six weeks after administration, dose-dependent
Experimental: as §1, §2
Six weeks after the administration, the rats were anesthetized, and the blood was taken from the abdominal aorta, and, after standing for 1 hour, was centrifuged at 3000 rmp for 10 min and stored at −70° C. Serum levels of creatinine, urea nitrogen, cholesterol and triglycerides were measured using an automated biochemical analyzer.

STZ-induced DKD rats [5] = experiment: Kidney index of STZ-induced DKD rats; type: in vivo, rat; conditions: after 6 weeks of administration
Experimental: as §1, §2
After 6 weeks of administration, the kidney tissue was uniformly separated by an autoclave surgical instrument, and washed with normal saline. After the filter paper was blotted, the fine balance was weighed, and then stored in a refrigerator at −80° C. for use. Kidney index (relative to kidney weight) is kidney weight (mg)/body weight (g)[…].

EPO mRNA = EPO mRNA by RT-PCR in CoCl2-induced HepG2 cell hypoxia model; conditions: hypoxia model caused by cobalt dichloride, concentration not given
STZ-induced DKD rats [6] = experiment: HE staining of kidney tissue, STZ-induced SD rat DKD model; type: in vivo; conditions: 10 mg/kg i.g. once/day, 6 weeks
Experimental: (§3) Before the injection, the rats were fasted for 12 hours without water. After weighing, the rats were injected with 55 mg/kg STZ intraperitoneally (STZ needs to be injected quickly, and the injection was completed within 10 minutes), and then returned to the cage to ensure that the rats had sufficient drinking water for 24 hours. Rats were injected with an equal volume of citrate buffer (pH 4.5). After STZ injection for 3 weeks, blood was collected from the tail vein, and blood glucose ≥16.7 mmol/L was used as the criteria for the standard of the rats.
(§4) The route of administration is intragastric administration. TBN was administered twice a day (fixed at 9:00-10:00 am and 3:00-4:00 pm), and Losartan was administered once a day (fixed at 9:00-10:00 am) continuously for 6 weeks.
At the end of the experiment, kidney tissues were quickly separated, fixed with 4% paraformaldehyde and embedded in paraffin, serially sliced, 5 μm each, dried at 37° C. for 1 h, and then stained with hematoxylin and eosin (HE). The process is briefly as follows: paraffin sections were taken out of the 65° C. oven and immediately put in xylene to dewax and rehydrated with gradient alcohol, stained with hematoxylin staining solution for 10 minutes, and microscopically controlled alcohol differentiation with 1% hydrochloric acid was performed until the chromatin of the nucleus and the nucleus becomes clear; 1% ammonia water-ethanol solution is blue; 0.5% eosin Y-ethanol solution is stained for 3 min, and finally dehydrated routinely, mounted, and the tissue morphology changes are observed under a light microscope. […] The glomerular volume of rats in the DKD group of the Vehicle group increased, the mesangial area was diffusely widened, the mesangial cells were proliferated, the capillary loops were expanded, the mesangial matrix increased, and the glomerular capillary basement membrane was irregularly thickened. Renal pathological changes such as vacuole deformation, shedding of renal tubular epithelial cells and infiltration of a large number of inflammatory cells (FIG. 9A).

STZ-induced DKD rats [7] = experiment: PAS staining, glomerular sclerosis index, STZ-induced DKD rats; type: in vivo, rat; conditions: all doses of TBN (10, 30, 60 mg/kg twice/day); Losartan 10 mg/kg once/day; 6 weeks; P<0.001 vs Vehicle
Experimental: as §3, §4
At the end of the experiment, kidney tissues were quickly separated, fixed with 4% paraformaldehyde and embedded in paraffin, serially sliced, 5 μm each, dried at 37° C. for 1 h, and then stained with PAS. The process is briefly as follows: paraffin sections are taken out of the 65° C. oven and immediately placed in xylene for deparaffinization and gradient alcohol rehydration, followed by periodic acid treatment for 5 min and Schiff treatment for 10 min, and then differentiation is performed with differentiation solution for 10 s. […]

STZ-induced DKD rats [8] = experiment: Masson staining, interstitial fibrosis index, STZ-induced DKD rats; type: in vivo, rat; conditions: 10 mg/kg once/day, P<0.05 vs vehicle
Experimental: as §3, §4
At the end of the experiment, the kidney tissues were quickly separated, fixed with 4% paraformaldehyde and embedded in paraffin, serially sliced, 5 μm each, dried at 37° C. for 1 h, and then subjected to Masson staining. The process is briefly as follows: paraffin sections are taken out of the 65° C. oven and immediately put in xylene for dewaxing and gradient alcohol rehydration, according to the kit instructions, add reagent A (a mixture of equal amounts of A1 and A2) for dyeing for 8 min; then use Reagent B differentiates and reagent C turns blue; reagent D stains for 7 min; reagent E washes for 1 min; reagent F washes for 1 min; reagent G stains for 1 min; dehydrated with 95% ethanol and absolute ethanol, transparent xylene, sealed with neutral gum piece.

db/db mice [9] = experiment: 24 h urine microalbumin in db/db mice; type: in vivo, mouse; conditions: 10 mg/kg once/day, 6 weeks, P<0.001
Excerpt: db/db mice are congenital obese type 2 DKD mice with spontaneous mutations in the leptin receptor (Leptin receptor, Lepr) due to a point mutation in the leptin receptor gene GT located on chromosome 4. The course of polyphagia, polyuria, diabetes and hyperglycemia is similar to that of humans, and it is currently the most widely used type 2 spontaneous animal model of DKD. The db/db mice have a series of complications with the aggravation of diabetes. The main pathological changes of renal tissue are the expansion of the glomerular mesangial interstitium, the thickening of the glomerular basement membrane, and the excessive accumulation of extracellular matrix. However, the glomerular mesangium of db/db mice changes relatively slowly, and the glomerular mesangium will not be dissolved or nodular glomerulosclerosis, and there is no progressive renal insufficiency. […]
db/db mice were tested for 24 h urine microalbumin in the 4th and 6th week after drug treatment. […] The absorbance value (OD value) was measured at 450 nm wavelength; the blank control hole was used for adjusting zero, the microalbuminuria standard concentration was used as the abscissa, the OD value as the ordinate, the standard curve regression equation was calculated, and on the basis of the regression equation and the sample's OD value, the concentration of the sample was determined.

db/db mice [10] = experiment: Electron microscopy of kidney tissue in db/db mice; type: in vivo, mouse; conditions: 10 mg/kg, 6 weeks (TBN P<0.05; Losartan P<0.01)
Excerpt: db/db mice are congenital obese type 2 DKD mice with spontaneous mutations in the leptin receptor (Leptin receptor, Lepr) due to a point mutation in the leptin receptor gene GT located on chromosome 4. The course of polyphagia, polyuria, diabetes and hyperglycemia is similar to that of humans, and it is currently the most widely used type 2 spontaneous animal model of DKD. The db/db mice have a series of complications with the aggravation of diabetes. The main pathological changes of renal tissue are the expansion of the glomerular mesangial interstitium, the thickening of the glomerular basement membrane, and the excessive accumulation of extracellular matrix. However, the glomerular mesangium of db/db mice changes relatively slowly, and the glomerular mesangium will not be dissolved or nodular glomerulosclerosis, and there is no progressive renal insufficiency.
Six-week-old db/db mice were purchased, and start the administration after adaptive feeding for 1 week (i.e., 7-week-old). TBN is administered twice a day (fixed by starting from 9:00-10:00 am and 3:00-4:00 pm, with an interval of 6 hours), and the positive control drug Losartan was administered once a day (fixed at 9:00-10:00 am) for 6 weeks.
After the mice were executed, the renal cortex was quickly taken with sharp blade (performed on ice); fixed with 2.5% glutaraldehyde (pH 7.4) at 4° C. for 6 h; then fixed for 2 h in a stationary liquid having 1:1 of 0.2 mmol/L PBS and 2% osmic acid, and dehydrated with gradient acetone at 4° C., 10 min for each of 50%, 70%, 90% acetone, then dehydrated with 100% acetone at room temperature twice, each time 15 min; in 1:1 acetone and Epon812 epoxy resin embedded mixed liquid, soaked at room temperature for 30 min; then dipped through the pure furnishings overnight, the embedding agent was made enveloping into tissue blocks completely to replace the dehydrating agent; the samples were embedded in the embedder for ultra-thin slicing, placed at 35° C. for 12 h; placed at 45° C. for 12 h; placed at 60° C. for 48 h; placed in a 37° C. oven for 36 h, in a 60° C. oven for 36 h; 1.5 μm semi-slice was prepared with an ultra-thin slicer; positioning under optical microscope, a trapeter having a top area of about 1 mm^2 was shaped to prepare 60-70 nm thick ultra-thin slices; dyed in dark with acetate hydroxide liquid for 10 min, and dyed in lead-stained citrate for 10 min.

db/db mice [11] = experiment: Urinary albumin/creatinine ratio in db/db mice, TBN alone and in combination; type: in vivo, mouse; conditions: TBN 30 mg/kg, Losartan 10 mg/kg, TBN+Losartan (FIG. 17)
Experimental: Grouping and dosing are the same as in Example 9. At the end of the experiment, 24 h urine samples were collected, antiseptic treatment was performed to all urine specimens with toluene, 24 h urine was centrifuged to remove precipitation and placed in a 1.5 mLEP tube and then placed in a refrigerator at −20° C. for later use, urinary albumin content was measured with ELISA kits, urine creatinine levels were detected by use of an automatic biochemical analyzer, and the ratio of both was calculated. The results as shown in FIG. 19 indicate that the ratio of urinary microalbumin to creatinine in DB/DB group was higher than that in wt/wt group, and the db/db mice 24 h urinary albumin creatinine ratio decreased in TBN group, losartan group and TBN-losartan combination group. Referring to this method, metformin (150 mg/kg, qd), and HIF-PH inhibitor roxadustat (10 mg/kg, once 2 every days) were given via oral administration, the combination groups of TBN with respectively metformin and roxadustat also reduce 24 h urinary albumin creatinine ratio.

SMILES	body weight (STZ-induced DKD rats [1]; STZ-induced diabetic nephropathy rats, FIG. 1a)	water intake (STZ-induced DKD rats [1]; vs model group, FIG. 1b)	food intake (STZ-induced DKD rats [1]; vs model group, FIG. 1c)	number of retinopathy (STZ-induced DKD rats [2])	time when retinopathy occurred (STZ-induced DKD rats [2])	urinary protein content in urine (STZ-induced DKD rats [3]; 24 hour urine, DKD rats)	blood glucose (STZ-induced DKD rats [3]; after 6 weeks of treatment)	serum cholesterol (STZ-induced DKD rats [4])	serum creatinine (STZ-induced DKD rats [4])	serum triglyceride (STZ-induced DKD rats [4])	serum urea nitrogen (STZ-induced DKD rats [4])	kidney index (STZ-induced DKD rats [5])	expression of EPO mRNA (EPO mRNA)	glomerular area (STZ-induced DKD rats [6])	renal tissue damage (HE) (STZ-induced DKD rats [6])	glomerular sclerosis index (STZ-induced DKD rats [7])	interstitial fibrosis index (STZ-induced DKD rats [8])	24 h urine microalbumin production (db/db mice [9])	thickness of the glomerular base film (db/db mice [10])	24 h urinary albumin creatinine ratio (db/db mice [11])
Cc1nc(/C=[N+](\[O-])C(C)(C)C)c(C)nc1/C=[N+](\[O-])C(C)(C)C [TN-2]	no effect	significantly lower	significantly lower	reduced	relatively delayed	significantly reduced	significantly decreased	significantly reduce	significantly reduce	significantly reduce	significantly reduce	significantly reduced	increase	–	–	–	–	–	–	–
CCCCc1nc(Cl)c(CO)n1Cc1ccc(-c2ccccc2-c2nn[nH]n2)cc1 [Losartan, reference compound]	–	–	–	–	–	–	–	–	–	–	–	–	–	did not significantly reduce	improved	significantly reduce	significantly reduced	significantly reduced	significantly reduced	decreased
